This is an account of results in patent US10196357B2, “Biaryl compositions and methods for modulating a kinase cascade” (Athenex, Inc., priority 2007, dated 2019).

Structures are written as SMILES. Where two headings read alike, the source gives them in different places. Bounds are passed on as bounds.

Assay [1] relates to c-Src 3T3 cells. The assay can be described thus: BrdU cell growth inhibition, c-Src 3T3. The format is cell-based, mouse. The note with it: Mus musculus; for GI50: c-Src 3T3 (c-Src527F/NIH3T3) cells, read-out: GI50; for activity at 0.1 µM / activity at 1 µM / activity at 10 µM: NIH3T3, read-out: c-Src 3T3 Growth, % of Control Mean, n = 3; for activity at 0.1 µM: 100 nM. The protocol: (§1) The GI50s for several of the compounds of the invention were assayed as described herein.
The cells were routinely cultured in DMEM supplemented with Fetal Bovine Serum (2.0% v/V), L-glutamine (2 mM) and Sodium Pyruvate (1 mM).
(§2) In the BrdU Assay for cell growth inhibition, quantitation of cell proliferation was based on the measurement of BrdU incorporation during DNA synthesis. The Cell Proliferation ELISA BrdU assay kit (colorimetric) was obtained from Roche Applied Science and performed as per vendor instructions.
(§3) The growth inhibition (GI) is determined from the formula GI=(T0−Tn×100/T0−CONn) where T0 is the BrdU growth of untreated cells at time “0”, Tn is the BrdU growth of treated cells at day “n” and CONn is the control BrdU growth of control cells at day “n”. The GI50 was extrapolated and the data plotted using XL-Fit 4.0 software.
(§4) For 96 well culture plate experiments, c-Src 3T3 medium was supplemented with 10 mM HEPES buffer. HT-29 cells were seeded in standard tissue culture 96-well plates and c-Src 3T3 cells were seeded in 96-well plates coated with Poly-D-lysine (BIOCOAT™). To increase CO2 diffusion, c-Src 3T3 96-well plates were incubated with their lids raised by ˜2 mm using sterile rubber caps.
(§5) Samples were reconstituted in DMSO at 20 mM and intermediate dilutions made using DMEM containing 10% FBS. […] Plates were assayed for BrdU and the data analyzed as above for GI50.
(§6) All compounds were initially prepared as 20 mM DMSO stock solutions and then diluted into buffer for the in vitro tumor growth assays. NG means no cell growth beyond the control and T means the number of cells in the drug treated wells was less than in the control (i.e. net cell loss).

The test system of assay [2] is HT29 cell line. The assay can be described thus: BrdU cell growth inhibition, HT29. The note with it: for GI50: read-out: GI50; for activity at 0.05 µM / activity at 0.5 µM / activity at 5 µM: HT-29, read-out: HT-29 Growth, % of Control Mean, n = 3; for activity at 0.05 µM: 50 nM; for activity at 0.5 µM: 500 nM. It is filed as cell-based, human. As for the experimental part: as §1
The HT29 cell line is a NCI standard human colon carcinoma cell line.
as §2, §3, §4, §5, §6
Growth Inhibition. […] T1 values≤T0 values were designated as T, cytotoxicity.

As usually defined, the GI50 is the concentration that inhibits growth by half.

With `CN1CCN(CCOc2cc(OC3CCOCC3)c3c(Nc4c(Cl)ccc5c4OCO5)ncnc3c2)CC1` [AZD0530, reference compound], the GI50 in assay [1] stood at 203 nM; in assay [2] (Homo sapiens, HT-29, HT29 (Colon) cells), 330 nM.
Take `O=C(Cc1ccc(-c2ccccc2)cc1)NCc1cc(O)cc(OCc2ccccc2)c1` [KX1-306]: in assay [1], the activity at 0.1 µM is 47%, the activity at 1 µM is less than 0% and the activity at 10 µM was less than 0%. In addition, in assay [2] (Homo sapiens), the activity at 0.05 µM is 124%, the activity at 0.5 µM is less than 0% and the activity at 5 µM was less than 0%.
With `O=C(Cc1cccc(-c2ccccc2)c1)NCc1cccc(F)c1` [KX1-307], in assay [1], the activity at 0.1 µM came to 65.7%, the activity at 1 µM turned out to be 45.3% and the activity at 10 µM worked out at 4.2%. Also, in assay [2] (Homo sapiens), the activity at 0.05 µM worked out at 85.9%, the activity at 0.5 µM is 93.8% and the activity at 5 µM worked out at 39.4%.
In the case of `O=C(Cc1ccc(-c2ccccc2)cc1)Nc1cccc(F)c1` [KX1-308, N-(3-fluorophenyl)-4-biphenylacetamide], in assay [1], the activity at 0.1 µM came out at 94.5%, the activity at 1 µM is 77.7% and the activity at 10 µM came to 67.1%. Moreover, in assay [2] (Homo sapiens), the activity at 0.05 µM is 87.9%, the activity at 0.5 µM amounted to 76.1% and the activity at 5 µM came out at 32.3%.
On to `O=C(Cc1ccc(-c2ccccc2F)cc1)NCc1cccc(F)c1` [KX1-309], for which, in assay [1], the activity at 0.1 µM was less than 0%, the activity at 1 µM was less than 0% and the activity at 10 µM is less than 0%. Further, in assay [2] (Homo sapiens), the activity at 0.05 µM stood at 29.5%, the activity at 0.5 µM is less than 0% and the activity at 5 µM was less than 0%.
In the case of `O=C(Cc1ccc(-c2cccc(F)c2)cc1)NCc1cccc(F)c1` [KX1-310, N-(3-fluorobenzyl)-4-(3-fluorophenyl)phenylacetamide], in assay [1], the activity at 0.1 µM stood at 102%, the activity at 1 µM was less than 0% and the activity at 10 µM was less than 0%. Moreover, in assay [2] (Homo sapiens), the activity at 0.05 µM is 93.3%, the activity at 0.5 µM was less than 0% and the activity at 5 µM is less than 0%.
With `O=C(Cc1ccc(-c2ccc(F)cc2)cc1)NCc1cccc(F)c1` [KX1-311, N-(3-fluorobenzyl)-4-(4-fluorophenyl)phenylacetamide], in assay [1], the activity at 0.1 µM turned out to be 81.3%, the activity at 1 µM is less than 0% and the activity at 10 µM is less than 0%. Also, in assay [2] (Homo sapiens), the activity at 0.05 µM is 60.4%, the activity at 0.5 µM is less than 0% and the activity at 5 µM was less than 0%.
In the case of `CN(Cc1cccc(F)c1)C(=O)Cc1ccc(-c2ccccc2)cc1` [KX1-312, N-(3-fluorobenzyl)-N-methyl-4-biphenylacetamide], in assay [1], the activity at 0.1 µM amounted to 98.5%, the activity at 1 µM was 94.5% and the activity at 10 µM came out at 12.1%. In addition, in assay [2] (Homo sapiens), the activity at 0.05 µM is 93.7%, the activity at 0.5 µM came out at 67.6% and the activity at 5 µM is 33.7%.
On to `O=C(Cc1ccc(-c2ccccc2)cc1F)NCc1cccc(F)c1` [KX1-313, N-(3-fluorobenzyl)-4-phenyl-2-fluorophenylacetamide], for which, in assay [1], the activity at 0.1 µM worked out at 91.6%, the activity at 1 µM was less than 0% and the activity at 10 µM was less than 0%. Besides, in assay [2] (Homo sapiens), the activity at 0.05 µM was determined as 80.2%, the activity at 0.5 µM is less than 0% and the activity at 5 µM was less than 0%.
Consider `O=C(Cc1ccc(-c2ccccc2)nc1)NCc1cccc(F)c1` [KX1-314, N (3-fluorobenzyl)-2-phenylpyridine-5-acetamide], for which, in assay [1], the activity at 0.1 µM was determined as 93.6%, the activity at 1 µM was 88.4% and the activity at 10 µM is 39.3%. Besides, in assay [2] (Homo sapiens), the activity at 0.05 µM is 53.2%, the activity at 0.5 µM worked out at 83.7% and the activity at 5 µM is 14.4%.
As to `O=C(Cc1ccc(-c2ccccn2)cc1)NCc1cccc(F)c1` [KX1-315, N-(3-Fluoro-benzyl)-2-(4-pyridin-2-yl-phenyl)-acetamide], in assay [1], the activity at 0.1 µM is 89.3%, the activity at 1 µM is 88.1% and the activity at 10 µM is less than 0%. In addition, in assay [2] (Homo sapiens), the activity at 0.05 µM is 66%, the activity at 0.5 µM was 50.3% and the activity at 5 µM was less than 0%.
In the case of `O=C(Cc1ccc(-c2cccnc2)cc1)NCc1cccc(F)c1` [KX1-316], in assay [1], the activity at 0.1 µM amounted to 88.2%, the activity at 1 µM is less than 0%, the activity at 10 µM is less than 0% and the GI50 was more than 200 nM. In addition, in assay [2] (Homo sapiens), the activity at 0.05 µM came out at 77.8%, the activity at 0.5 µM is 45.1% and the activity at 5 µM was less than 0%.
On to `O=C(Cc1ccc(-c2cccc(Cl)c2)nc1)NCc1cccc(F)c1` [KX1-317, 2-[6-(3-Chloro-phenyl)-pyridin-3-yl]-N-(3-fluoro-benzyl)-acetamide], for which, in assay [1], the activity at 0.1 µM stood at 94.2%, the activity at 1 µM was 85.6% and the activity at 10 µM was less than 0%. In addition, in assay [2] (Homo sapiens), the activity at 0.05 µM was found to be 83.5%, the activity at 0.5 µM is 64% and the activity at 5 µM is less than 0%.
Regarding `CCc1ccc(-c2ccc(CC(=O)NCc3cccc(F)c3)cn2)cc1` [KX1-318, 2-[6-(4-Ethyl-phenyl)-pyridin-3-yl]-N-(3-fluoro-benzyl)-acetamide], in assay [1], the activity at 0.1 µM is 91.4%, the activity at 1 µM was 71% and the activity at 10 µM was less than 0%. In assay [2] (Homo sapiens), the activity at 0.05 µM amounted to 165%, the activity at 0.5 µM was determined as 93.2% and the activity at 5 µM is less than 0%.
Consider `O=C(Cc1ccc(-c2ccccc2)c(F)c1)NCc1cccc(F)c1` [KX1-319, N-(3-Fluoro-benzyl)-2-(2-fluoro-biphenyl-4-yl)-acetamide], for which, in assay [1], the activity at 0.1 µM is 88.2%, the activity at 1 µM was less than 0% and the activity at 10 µM is less than 0%. In assay [2] (Homo sapiens), the activity at 0.05 µM is 101%, the activity at 0.5 µM was less than 0% and the activity at 5 µM is less than 0%.
Consider `O=C(Cc1ccc(-c2ccc(F)cc2)nc1)NCc1cccc(F)c1` [KX1-320, N-(3-Fluoro-benzyl)-2-[6-(4-fluoro-phenyl)-pyridin-3-yl]-acetamide], for which, in assay [1], the activity at 0.1 µM was 90.4%, the activity at 1 µM was determined as 86.5% and the activity at 10 µM came to 73.1%. In addition, in assay [2] (Homo sapiens), the activity at 0.05 µM was determined as 111%, the activity at 0.5 µM worked out at 132% and the activity at 5 µM turned out to be 86.2%.
`O=C(Cc1ccc(-c2cccc(F)c2)nc1)NCc1cccc(F)c1` [KX1-321, N-(3-Fluoro-benzyl)-2-[6-(3-fluoro-phenyl)-pyridin-3-yl]-acetamide]: in assay [1], the activity at 0.1 µM is 95.5%, the activity at 1 µM worked out at 96.2% and the activity at 10 µM is 55.8%. Moreover, in assay [2] (Homo sapiens), the activity at 0.05 µM is 127%, the activity at 0.5 µM is 118% and the activity at 5 µM is 23.7%.
Turning to `CCOc1cccc(-c2ccc(CC(=O)NCc3cccc(F)c3)cn2)c1` [KX1-322, 2-[6-(3-Ethoxy-phenyl)-pyridin-3-yl]-N-(3-fluoro-benzyl)-acetamide], in assay [1], the activity at 0.1 µM amounted to 94.6%, the activity at 1 µM is less than 0%, the activity at 10 µM is less than 0% and the 50% growth inhibitory concentration (GI50) is 3730 nM. In assay [2] (Homo sapiens), the activity at 0.05 µM was 114%, the activity at 0.5 µM amounted to 87.2% and the activity at 5 µM was less than 0%.
For the compound `O=C(Cc1ccc(-c2cc[n+]([O-])cc2)cc1)NCc1cccc(F)c1` [KX1-357], in assay [1], the activity at 0.1 µM came out at 101%, the activity at 1 µM was 95.4% and the activity at 10 µM worked out at 9%.
The matching figures for `CCOc1ccc(-c2ccc(CC(=O)NCc3cccc(F)c3)c[n+]2[O-])cc1` [KX1-358, 2-[6-(4-Ethoxy-phenyl)-1-oxo-pyridin-3-yl]-N-(3-fluoro-benzyl)-acetamide]: 92.2%, 91.4% and 82.7%.
As to `CC(C)COc1cc(F)cc(CNC(=O)Cc2ccc(-c3ccc(CN4CCN(C)CC4)cc3)cn2)c1` [KX2-385], in assay [1], the GI50 is 232 nM.
For the compound `O=C1[O][Pt]2([NH][C@@H]3CCCC[C@H]3[NH]2)[O]C1=O` [oxaliplatin, reference compound], the GI50 in assay [2] (HT29 (Colon) cells) was 1480 nM.
